The values that follow are results of earlier work, collected in patent publication US12377214B2 (priority 2016, dated 2025).

The test system of the data set is BIS index. The conditions noted are these: in vivo.

Consider `CC(C)c1cccc(C(C)C)c1O` [propofol], for which the “Cp50 (interaction model parameter, effect site concentration of propofol)” value was 4.47.
